Source: patent US20170074857A1, “MEDICATION ADHERENCE MONITORING DEVICE” (UNIVERSITY OF FLORIDA RESEARCH FOUNDATION, INC., priority 2014, published 2017)
Like-named read-outs stand apart in the source and are kept apart here.

Experiments:
[1] = system: human carboxylesterases and tissue esterases; settings: metabolized by human carboxyesterases and tissue esterases; cited from earlier work
[2] = cited from earlier work
[3] = orally; FDA Q3C guidance; cited from earlier work
[4] = cited from earlier work; remark: listed apart in the source
[5] = Example 4a: noncompartmental pharmacokinetics of exhaled 2-butanone and 2-pentanone by mGC; format: in vivo, human; settings: human, in vivo
Source text: Test Materials. […] 2-butanol was purchased from Penta Manufacturing Company (Fairfield, N.J.). 2-pentanol and L-carvone were purchased from Sigma-Aldrich (St. Louis, Mo.). […] 2-pentanone was also used as a taggant, but we hypothesized that its inherent volatility would allow exhalation without need for metabolism. L-carvone tastes like spearmint and was used as a flavor mask. All capsules were filled on the day of the experiment.
Subject Enrollment and Protocol. This protocol (20100140) was approved by the Western Institutional Review Board (Olympia, Wash.). Healthy subjects (n=5) aged >18 years of age and of either sex were recruited. Informed, written consent was obtained from all enrolled subjects. The study consisted of a single experimental limb with six replicates per subject. Therefore, for five subjects with six replicated experiments, a total of 30 studies were performed. Subjects were free to eat ad lib prior to participation in the study. At commencement of the experiments, subjects provided a baseline breath sample (designated time 0 min) into the mGC for analysis as described subsequently. Then, subjects orally consumed the previously detailed capsule with 177 mL (6 ounces) of water. Following ingestion, we observed the breath concentration-time relationships of 2-butanone and 2-pentanone by collecting single-breath samples at times 5, 10, 15, 20, 30, 45, and 60 min. After 60 min, the experiment was concluded. After at least one day's respite, subjects returned for replicate experiments on five additional occasions.
2-Butanone and 2-Pentanone Measurement in Human Breath by mGC. Breath specimens were analyzed “real-time” to measure the concentrations of 2-butanone and 2-pentanone using the mGC (Xhale, Inc. Gainesville, Fla.) as previously described. In brief, a mouthpiece (FST®, Intoximeters, Inc., St. Louis, Mo.) was attached to the inlet of the mGC. A 15 mL side-stream sample was aspirated during a single exhalation over 5 s through this inlet port to a room temperature concentrator trap containing 4 mg of Tenax TA (Sigma-Aldrich). The trap temperature was then increased to 130° C. and the volatile components transferred to a 5 m by 0.53 mm internal diameter, metal clad, BAC-1 capillary column (Restek Corp, Bellefonte, Pa.) operated at 55° C. The effluent from the column then flowed to the metal oxide detectors. Separation of the markers from other volatile organic compounds present in the sample (i.e., acetone and isoprene) occurred in approximately 2 min. Data were tabulated and graphically presented over time to determine the concentrations of 2-butanone and 2-pentanone in a given breath specimen. Data are reported in parts-per-billion (ppb) based on molar fractions to account for differing ambient atmospheric pressures and temperature.
Pharmacokinetic Analysis. Analyte breath concentrations reported as ppb were converted to ng/mL by multiplying each concentration by the molecular weight of the respective molecule to allow proper functioning of conventional PK software for noncompartmental analysis (WinNonlin 5.2, Pharsight Corporation, St. Louis, Mo.). Estimates were generated for the following PK parameters (abbreviation, unit): first-order elimination rate constant (Lambda Z, min-1), half-life of elimination (Half-life, min), maximal drug concentration (CMAX, μg/mL), time at maximal drug concentration (TMAX, min), area under concentration versus time curve from zero to the last time point (AUC0-LAST, min*μg/mL), area under concentration versus time curve from zero to infinity (AUC0-∞, min*μg/mL), percentage of area under concentration versus time curve from zero to infinity, which is extrapolated from AUC0-t (% AUC Extrap) and the mean residence time (MRT, min). The area under concentration versus time curve (AUC) was calculated using the linear trapezoidal rule. All values are reported separately for each subject as mean±standard deviation following conversion from ng/mL to ppb. […]

[6] = Example 30: sodium alkyl carbonates, stability and breath ketones after ingestion (FIG. 83)
Method: Isopropanol (1000 mL) was taken lab reactor and added Na metal (6 g). The reaction mixture was heated to 80° C. for 3 h (sodium metal dissolved, clear solution was observed). The reaction mixture was cooled to 0 to 5° C. and purged CO2 (thick suspension was observed after 30 min). Aliquot were drawn after 30 min, concentrated and the solid obtained was analyzed by 1H NMR. The reaction mixture was allowed to stir for additional 30 min. The complete reaction mixture was rinsed with isopropanol (100 mL) and transferred to an R.B flask, concentrated under vacuum to get white solid. The solid obtained after concentration was dried under vacuum at 40° C. at 1 h to get 26 g of white solid.
Sodium isopropoxy carbonate is formed according to this method. The MAC from isopropanol seems to decompose at 60° C. MAC on treatment with water decomposes and white solid was isolated.
The solution was cooled to between 0 and 5° C. and purged with CO2 for 45 minutes. The resulting suspension was concentrated under high vacuum at 40-50° C. to obtain 15 g of white solid. ^1H-NMR: δ ppm (in D2O)=0.89 (triplet, 3H), 1.17 (doublet, 3H), 1.50 (multiplet, 2H), 4.38 (multiplet, 1H) ^13C-NMR: δ ppm (in D2O)=9.48, 19.59, 28.97, 73.96 and 159.61. IR: ν (cm^−1)=1651, 1458, 1369 and 1289 (indicative of an alkyl carboxylate).
Synthesis 2: Six grams of Na metal was dissolved in 100 mL of anhydrous isopropanol at 80° C. […]

[7] = Example 26: breath d6-acetone after 100 mg d8-isopropanol per diem for 5 days (LTQ-LCMS); settings: in vivo; for Half-life: human, 100 mg
Method: 100 mg aliquots (125 μL) of neat d8-isopropanol were ingested at 24 h intervals for a period of 5 days. Each aliquot was administered in a size 0 LiCap along with ˜200 mL of water.
Each breath sample consisted of a single full breath exhaled directly into the modified ESI source.
Following the ingestion of each aliquot, breath samples were taken every 2 min for the first 30 min following ingestion, every 5 min from 30-60 min after ingestion and every 10 min from 60-120 min. Additional breath samples were collected at ˜9 h and 20 h after ingestion. After the final dose, breath samples were taken once every 24 h for the next 3 days (total study time=8 days).

[8] = not given; remark: listed apart in the source
clinical = settings: human, exhaled breath, oral, 100 mg
[9] = in vivo
Source text: FIG. 79. […] The experimental data was curve fit (parameter estimates±SE) to Equation 1 using a non-linear, least squares (Marquardt-Levenburg) algorithm (SigmaPlot 11, Systat Software, Inc., San Jose, Calif.). […] Note: the logarithmic scale is used on the y axis.
These times are indicated by the short vertical lines on the time axis. […] The y axis is plotted on the log 10 scale.
As it relates to the SMART® Adherence System, the concentration rise (rapid absorption of AEM and conversion to EDIM) and decay of the EDIM with time in breath following oral administration of the AEM is well described by a 1 compartmental (monoexponential) pharmacokinetic (PK) model, reflecting absorption and elimination, which can be described by the following equation (dertived from Miller's Anesthesia, 6th Edition, p 81, 2005, Ed: Ronald D. Miller, Elsevier Churchill Livingstone, Philadelphia, Pa.):
In this example, an initial 1st AEM dose pharmacokinetic (PK) analysis over a period of 0 to a maximum of 24 hours is carried out. […] Note: To ensure an accurate EDIM t1/2a ideally the last time point measured in this 1st dose PK analysis includes the EDIM trough concentration (i.e., the concentration at the time point just prior to the 2nd dose). The AEM could either consist of ordinary or non-ordinary cold isotopes, which generate ordinary and non-ordinary cold isotopic labeled EDIMs. The EDIM levels in breath are measured using the appropriate SMART® device type as disclosed herein.

## CCCCOC(=O)c1ccc(O)cc1 [Butyl paraben]
[1]
  Breath Metabolites: Butanol + POHBA

## C[S+](C)[O-] [DMSO, dimethyl sulfoxide]
[2]; humans
  elimination half life: 12 to 15 h
[3]
  permissible daily exposure (PDE): 50 mg/day

## CCOC(=O)c1ccc(O)cc1 [Ethyl paraben]
[1]
  Breath Metabolites: Ethanol + POHBA

## CCCC(C)O (centres unmarked) [Formulation 2-pentanol, 2-pentanol]
[4]; oral
  LD50 Oral Rat: 1470 mg/kg

## CCCC(C)=O [Formulation 2-pentanone, 2-pentanone]
[5]; both sexes, Half-life
  Half-life: 0.395 h
[5]; both sexes, MRT0-Last
  MRT last: 0.42 h
[5]; both sexes, MRT0-last
  MRT last: 0.423 h
[5]; both sexes, TMAX
  TMAX: 0.247 h
[5]; both
  TThresh range between replicates: 5 to 7 min
[5]
  AUC0-8: 58214 min · ppb
  observed CMAX range: 536-2,072 ppb

## CC(C)OC(=O)O [MAC from isopropanol, Sodium Isopropyl Carbonate]
[6]
  temperature at which it seems to decompose: 60 °C

## COC(=O)c1ccc(O)cc1 [Methyl paraben]
[1]
  Breath Metabolites: Methanol + para- hydroxybenzoic acid (POHBA)

## CC(C)=O [acetone]
[7]; elimination half life in breath, Example 26 / FIG. 74, after d8-IPA
  Half-life: ~6.4 h
[7]; half-life of acetone derived from IPA, exhaled breath
  Half-life: ~6.5 h
IPA 138 mg orally per day (PDE)
  CMAX assuming dose proportionality: 4131 ppb
[8]; 100 mg IPA daily
  time for trough concentrations to reach steady state: 1 to 2 days
[8]; 100 mg IPA for 5 successive days, Type 1 (mGC) device
  breath concentration: 2700 to 3000 ppb
[8]; 100 mg IPA oral
  maximum breath concentration: 2800 ppb
[8]; 100 mg IPA oral, 15 and 30 min
  rise of breath concentration over baseline: greater than 6 ×
[2]; Jones, J Anal Toxicol 2000
  average elimination half life in humans: 22 h
  metabolic/elimination half life in humans: 17 to 27 h
clinical
  Half-life: < 10 h
[3]
  permissible daily exposure (PDE): 210 mg/day

## [2H]C([2H])([2H])C(=O)C([2H])([2H])[2H] [d6-acetone]
[7]
  Average k: Average k = −0.1079
  elimination half life in breath: 6.4 h
  exhaled breath peak height: 62000 peak height
  time after a dose up to which deviations from steady state are detectable: up to 65 hours
  t½: t½ ≃ 6.4 h
[7]; 24 h
  maximum peak response remaining after 24 h: 6-10%
[9]; human
  TMAX: 1.46 h
  steady state CMAX: 1819 ppb
[9]; human, 100 mg
  CMAX, 1st dose: 1561 ppb
[9]
  FLost: 0.859
  accumulation factor (AF): 1.165
  steady state CTrough: 267 ppb
100 mg d8-IPA
  TMAX: 3 h
100 mg d8-IPA, assuming breath acetone of 582 ppb
  maximum breath concentration (CMAX): 2,993 ppb

## [2H]OC([2H])(C([2H])([2H])[2H])C([2H])([2H])[2H] [d8-IPA, d8-isopropanol]
Single 100 mg dose
  OrbiTrap peak height: 360,000 peak height
  OrbiTrap response relative to background endogenous breath acetone: approximately 5.14 ×

## CCOC(=O)C(C)C [ethyl isobutyrate]
[4]; oral
  LD50 Oral Rat: 13000 mg/kg

## CCCCCCOC(C)=O [hexyl acetate]
[4]; oral
  LD50 Oral Rat: 30147 mg/kg

## CC(=O)OCCC(C)C [isoaryl (isopentyl) acetate]
[4]; oral
  LD50 Oral Rat: 16600 mg/kg

## CCC(=O)OC [methyl propionate]
[4]; oral
  LD50 Oral Rat: 5000 mg/kg

## COC(=O)C(C)C [methylisobutyrate]
[4]; oral
  LD50 Oral Rat: 5000 mg/kg

## CCCOC(C)=O [propyl acetate]
[4]; in vivo, po
  LD50 Oral Rat: 9370 mg/kg
